Source: EP0209430A2, “L-di or tripeptides possessing a biological activity for use in human and veterinary medicines, process for their obtention and medicines containing them” (INSTITUT DE RECHERCHES CHIMIQUES ET BIOLOGIQUES APPLIQUEES …, priority 1985, dated 1987)
In brackets after ≈: the same amount, converted by molar mass.

Columns and labels:
Assay in all cases: MIC (C.M.I.) in agar medium
Type in all cases: cell-based
[1] = tested on: Serratia; settings: Serratia 22.579, inoculum 10^4 à 10^5 bacteria per ml
Description: (§1) Par exemple, nous décrivons les C.M.I. (concentrations minimales inhibitrices) en µg/ml, obtenues en milieu gélosé pour un inoculum de 10^4 à 10^5 bactéries par millilitre, du composé B 1067.

[2] = tested on: E. Coli
Description: as §1

[3] = tested on: S. aureus; settings: Staphylococcus aureus
Description: as §1

[4] = tested on: Salmonella E.; settings: Salmonella E. CNCM 57.29, inoculum 10^4 à 10^5 bacteria per ml
Description: as §1

[5] = tested on: Klebsiella p.; settings: Klebsiella p. La 433, inoculum 10^4 à 10^5 bacteria per ml
Description: as §1

[6] = tested on: S. faecalis; settings: Enterococcus faecalis, ATCC14508, S. faecalis ATCC 14508, inoculum 10^4 à 10^5 bacteria per ml
Description: as §1

SMILES: C[C@H](N)C(=O)N[C@@H](C)P(=O)(O)O [B 1067, Selde l'amino-2-(hydroxyméthyl)-2-propanediol-1,3 avec l'acide L-Alanyl-L-(amino-1)-éthylphosphonique]
- MIC [1]: 32 to 64 µg/mL (≈ 163 to 326 µM)
- C.M.I. ([2]; E. Coli CNCM 53.126, inoculum 10^4 à 10^5 bacteria per ml): 0,25 µg/ml
- MIC ([2]; Escherichia coli, E. Coli CNCM 54.8, inoculum 10^4 à 10^5 bacteria per ml): 0.25 µg/mL (≈ 1.27 µM)
- MIC ([3]; ATCC63, S. aureus ATCC 63.58 P, inoculum 10^4 à 10^5 bacteria per ml): 32 µg/mL (≈ 163 µM)
- MIC ([3]; ATCC29213, S. aureus ATCC 29213, inoculum 10^4 à 10^5 bacteria per ml): 8 µg/mL (≈ 40.8 µM)
- MIC ([3]; S. aureus CNCM 52.149, inoculum 10^4 à 10^5 bacteria per ml): 32 µg/mL (≈ 163 µM)
- MIC [4]: 1 µg/mL (≈ 5.1 µM)
- MIC [5]: 16 µg/mL (≈ 81.6 µM)
- MIC [6]: 32 µg/mL (≈ 163 µM)
